Data set [1] concerns ragweed sensitized Beagle dogs. Nature of the data set: Ragweed-induced nasal congestion, nasal cavity volume by acoustic rhinometry. It counts as in vivo. An excerpt:
Beagle dogs immunized with ragweed (RW) as puppies develop allergic immune responses. These allergic dogs show elevated total and specific serum IgE and increased numbers of eosinophils in their blood and lungs, as well as an increase in airway resistance and a decrease in dynamic compliance after a challenge with RW by inhalation or local instillation in defined lung lobes. Additionally, these dogs develop increased nasal congestion and inflammation following RW challenge in the nose.
Ragweed sensitized beagle dogs (n=5) with preexisiting nasal and airway allergic responses were utilized in the animal study described in this Example. Dogs served as their own control and initially were treated with vehicle (sterile water) and then rested for 5 weeks prior to receiving the test compound. […] Based on the aerosol testing only 1.6 mg/dog could be delivered by inhalation during a 15 minute exposure (20 mg/ml solution). […]
FIG. 1 summarizes the study design for characterizing the effects of CGP on rhinitis symptoms in ragweed sensitized Beagle dogs. The baseline nasal cavity volume was first measured 3 days (day −3) before each of the vehicle and CGP treatments. […]
Treatment occurred on Days 0 to 5 (only AM on Day 5). […] The pH of the compound (as administered for nasal inhalation) was recorded prior to administration. […]
Acoustic rhinometery was measured on experimental Days 3, 4, and 5. […]

Data set [2] relates to human subject having a respiratory condition. In words: Application of CGP (forced nasal lavage, spray/mist) to a human subject with post nasal drip, nasal obstruction and chronic cough. Type of data set: in vivo. The settings on record: one subject. An excerpt:
CGP was incorporated into samples of a lavage or a spray product at varying concentrations, along with different sweetening/moisturizing components (sorbitol, glycerin) at varying levels (0.5% to 7.5% by weight), appropriate food/drug grade fungistats and bacteristats (methyl paraben and benzalkonium chloride), and light flavorings of several types (peppermint, spearmint and orange) in some iterations.
A first human subject for laboratory/home trials was a person in good general health. […] The subject has experienced a decades-long post nasal drip (PND) as an adult, nasal obstruction (mucus, septum). The subject has experienced coughs that have been of weeks-long and, on occasion, months-long duration, following seasonal flu or colds. The subject has experienced chronic throat-clearing from PND and chronic cough even when not post-respiratory illness, which they ascribe to bronchitis. […] The subject breathed almost exclusively through mouth as a child because of nasal obstruction. The subject breathes through both nose and mouth as an adult, with breathing through nose occasionally mildly problematic, requiring active conscious engagement, although the subject was never “short of breath” in terms of lung capacity, etc.
The subject performed forced nasal lavage once daily for about two weeks. The forced nasal lavage was conducted intranasally over skin and normally in a shower. An aqueous solution or suspension of CGP at various concentration, such as about 7.5%, 3.75%, 2.5%, 2%, 1.5% by weight of dry CGP, was forced into one nostril and out of the other nostril using a closed plastic bottle with an internal stem feed. This procedure was repeated for each side of the nostrils. Some product was swallowed via nasal route and there was approx. 2 oz. fluid per nostril.
The subject applied CGP into their nostrils in a spray or a mist. A closed small plastic bottle with internal stem feed constructed to deliver fluid contents as mist was used. Typically, one application was performed in the morning. Each application consisted of two sprays per nostril, alternating sides, with full simultaneous deep breath inhalation or inspiration to draw the product up the nose and into the airway passages. The spray was also, on occasion, applied directly through the mouth to the throat with 1 or 2 sprays per application. An average spray delivery contained about 200 mg of a formulation of CGP per squeeze. The formulation contained about 2% to about 3.75% by weight of dry CGP.
In addition to the routine application of CGP to prevent or control symptoms associated with the respiratory system, the subject has also used CGP to relieve symptoms during an episode of a condition of airway/upper respiratory tract. […] At about 10:45 A.M., the subject applied a double-dose of NasoCell (1.75% CGP by weight) via nasal inhalation in each nostril. At about 11:30 AM, the subject's symptoms were much improved. The subject then self-administered another dose of NasoCell in each nostril. […] The subject had no trouble breathing while they were eating during lunch. […] The subject's throat was cleared of any obstructions and breathing sounds, and was wide open. The subject's nasal passages were reopened and voice cleared from an earlier morning huskiness, characteristic of a post nasal drip condition. It is noteworthy that this subject observed that after some weeks of usage, much reduced usage was required to “maintain”, and that this included the skipping of usage altogether, some days.

A short description of data set [3]: pH of the nebulizer solution. Type of data set: physicochemical. The conditions noted are these: 20 mg/ml in sterile water. On the procedure:
Vehicle (sterile water) was given twice daily by inhalation (15 minutes) followed by intranasal instillation of water (2×250 μl in each nostril). […] The test-article and the compound solution were prepared in the morning of each treatment day. Vehicle and test-article were administered by inhalation and intranasal instillation twice a day. Dosing of vehicle or test compound was achieved by utilizing a face mask connected to a jet nebulizer for inhalation delivery followed by intranasal instillation in both nostrils using an Accuspray device.
Treatment occurred on Days 0 to 5 (only AM on Day 5). Vehicle and compound were delivered in the morning (8:15-9:10 am) and the afternoon (2:00-3:30 pm). On days when acoustic rhinometry procedures were performed (Days 0), the morning dosing occurred such that the procedures were performed within 1-6 h after dosing. The pH of the compound (as administered for nasal inhalation) was recorded prior to administration. As identified in the aerosol exposure the average pH of the nebulizer solution was 8.85.

Setting [4] is: forced nasal lavage or spray/mist.

For the substance calcium glycerophosphate, the “attenuation of nasal congestion at individual time points” value in data set [1] (15 to 90 minutes post ragweed, Bonferroni posttest p<0.05) is given as “statistically significant at all time points from 15 to 90 minutes post ragweed”. Also, the “AUC of the change in nasal cavity volume between 0 and 90 min” value in data set [1] (vs vehicle control, n=5, Paired t-test p=0.0092) is reported as “significantly increased”. Moreover, in data set [2] (setting [4]), the coughing result was “complete cessation of coughing” and the “reduction of post nasal drip” value is 95-98%. The substance further registered a decreased drainage in data set [2] (forced nasal lavage, 1.5-7.5% by weight CGP, about 10-20 minutes after the lavage) of 90%. Moreover, the “throat-clearing diminished compared with prior state” value in data set [2] (forced nasal lavage, about 20-60 minutes after the lavage) is recorded as “about 90%”. In addition, in data set [2] (forced nasal lavage, about 1 hr to 12/24 hr after the lavage), the “symptoms (drip, cough, breathing)” value is “no drip, no cough, and easy open breathing”. Moreover, the “onset of relieving effects” value in data set [2] (nasal spray/mist, about 2% to 3.75% by weight CGP, two sprays per nostril) is reported as “almost instantaneously upon application”. The “duration of benefits post application” value in data set [2] (nasal spray/mist, about 2% to 3.75% by weight CGP) is given as “about four to eight hours”. In addition, the night breathing result in data set [2] (single spray per nostril at bedtime) is given as “appeared to produce better night breathing”. The “average pH of the nebulizer solution” value in data set [3] was 8.85.
